Measurements: patent US20250263376A1, “(E)-N-CINNAMOYLAMINOALKANOLS WITH MELANOGENESIS INHIBITORY ACTIVITY” (Uniwersytet Jagiellonski, priority 2024, published 2025)
Several values for one entry are separate records, joined by “and”; a condition that tells them apart may be missing. Identical values can stand only once.

Tests used:
[1] = tested on: S. typhimurium TA98; experiment: Ames microplate test, TA98; type: cell-based, Salmonella typhimurium; settings: positive control 0.5 μg/mL, + S9
Description: Bacteria were grown overnight in growth medium.

[2] = tested on: S. typhimurium TA100; experiment: Ames microplate test, TA100; type: cell-based, Salmonella typhimurium; settings: positive control 1.25 μg/mL, + S9
Description: (§3) The study used the Ames microplate test (Ames MPF™ Penta 2 by Xenometrix, Allschwil, Switzerland). Growth medium, exposure medium, indicator medium, positive controls, hepatic microsomal fraction, NADP, glucose-6-phosphate, Salmonella typhimurium and Escherichia coli strains were components of the purchased experimental kit. Bacteria were grown overnight in growth medium. They were then exposed to the test compound at the appropriate concentration in exposure medium without or with the rat microsomal fraction S9 in 24-well plates for 90 min at 37° C. with shaking. Then, indicator medium was added to the wells and pipetted into 384-well plates, which were incubated for 48 hours at 37° C. without shaking. Results were assessed by counting the wells in which the medium turned yellow for each experimental condition.

[3] = tested on: S. typhimurium TA1535; experiment: Ames microplate test, TA1535; settings: positive control 2.5 μg/mL, + S9;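 further: bacteria exposed 90 min at 37 °C in exposure medium, then 48 h in indicator medium in 384-well plates, yellow (revertant) wells counted per condition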
Description: as §3

[4] = tested on: B16-F10 murine melanoma cell line; experiment: Cytotoxicity (MTT) in B16-F10 murine melanoma cells; type: cell-based; settings: 48 h
Description: Cytotoxicity Assessment in the B16-F10 Murine Melanoma Cell Line (ATTC CRL-6745)—Preliminary Safety Assessment for Subsequent Studies
In order to determine safe doses of compounds for testing the inhibition of melanogenesis in a murine melanoma cell line, cytotoxicity tests were performed. Cytotoxicity was determined by the colorimetric method using MTT ([3-(4,5-dimethyl-2-thiazolyl)-2,5-diphenyl-2H-tetrazolium bromide, Sigma M5655). For this purpose, cells were transferred to 96-well plates in an amount of 5000/well. After 24 h of culture in an incubator in F10-Ham medium with 1% FBS, the tested compounds at various concentrations were added to the wells together with fresh medium. DMSO was added to the medium in a negative control. The MTT test was performed after further culture for 48 h. Then the medium was removed and the formed formazan crystals were dissolved in DMSO. The absorbance was measured at 570 nm in a plate reader and the result was compared to the control (DMSO), which was 100%. The percentage of viability was calculated using the formula: [AT/AC*100], where AT is the absorbance of the test sample, AC—absorbance of the control sample.

[5] = target: T1, tyrosinase from mushroom (Agaricus bisporus, UniProt C7FF04); experiment: Inhibition of commercial mushroom tyrosinase, substrate L-DOPA; type: biochemical; settings: 500 μM; read-out: Tyrosinase inhibition with L-DOPA [%]
Description: (§1) Studies on the Inhibition of the Activity of Commercial Tyrosinase from Mushroom (Sigma: T3824)
(§2) The following substrates were used for the enzymatic reaction: L-tyrosine and L-3,4-dihyroxyphenylalanine (L-DOPA). Both substrates were used in independent experiments. According to the literature, the use of L-DOPA enables the assessment of tyrosinase diphenolase activity, and L-tyrosine—the tyrosinase monophenolase activity. The determinations were performed in 96-well plates, in each well there was placed: 170 μL or 127.5 μL of 50 mM phosphate buffer (pH=6.8) with tyrosinase (1U/well or 3U/well) and 10 μL of a solution of the tested compound in DMSO (the final concentration in the well was 500 μM, 250 μM or 125 μM). The negative control used 10 u L of pure solvent (DMSO). To initiate the reaction, an appropriate substrate was added: L-tyrosine (62.5 μL of solution in phosphate buffer) or L-DOPA (20 μL of solution in phosphate buffer). After a 25-minute incubation, the absorbance was measured at 475 nm using a microplate reader. The percentage of inhibition of tyrosinase activity was calculated using the formula: [(AC−AT)/[…], where AC—is the absorbance of the negative control, AT—is the absorbance of the sample containing the tested compound.

[6] = Lipophilicity coefficient RM0 by reversed phase thin layer chromatography; type: physicochemical; settings: RP-18 TLC, methanol/phosphate buffer pH=7.4
Description: Confirmation of the identity and purity of the obtained compounds consisted in the registration and interpretation of 1H NMR and 13C NMR spectra (the spectra were recorded using an ECZR 500 MHZ (JEOL) series FT-NMR spectrophotometer), as well as the registration and interpretation of LC-MS spectra (the spectra were recorded using Acquita UPLC system (Waters) coupled with a Waters TQD mass spectrometer). The melting point was measured using the open capillary method in the IA9300 device (Electrothermal). The lipophilicity coefficient RM0 was determined by reversed phase thin layer chromatography. In the study, aluminum plates 20×20 cm covered with modified silica gel RP-18 F254 (Merck) were used as the solid phase. The mobile phase consisted of solutions of methanol and 100 mM phosphate buffer (pH=7.4), characterized by a variable methanol content ranging from 95 to 65% (v/v). The tested compounds were dissolved in methanol to obtain solutions with a concentration of 1 mg/mL. Then, […] of the solutions prepared in this way were transferred to the starting line on aluminum plates, which were then placed in chromatographic chambers previously saturated with mobile phase vapors for at least 1 hour. All activities, including the development of chromatograms, were carried out at room temperature. After developing the chromatograms to approximately 1-2 cm from the end of the plate, the plates were dried and then the distance traveled by the tested compounds was visualized under UV light (λ=254 nm). The experiment was performed in duplicate for the specified conditions. For all samples, Rf was calculated according to the formula Rf=a/b, where a—the distance traveled by the tested compound, b—the distance traveled by the mobile phase. Then, the RM parameter was calculated for all samples according to the formula RM=log (1/Rf−1), obtaining a linear relationship between the RM values and the methanol concentration in the mobile phase. The log P coefficient was also calculated using the following computer programs: ACD/ChemSketch 2020.1.2 and ChemDraw 20.0.0.41.

[7] = target: T1, tyrosinase from mushroom; experiment: Inhibition of commercial mushroom tyrosinase, substrate L-tyrosine; type: biochemical; settings: 500 μM; read-out: Tyrosinase inhibition with L-tyrosine [%]
Description: as §1, §2

T1 sequence (C7FF04 2-392): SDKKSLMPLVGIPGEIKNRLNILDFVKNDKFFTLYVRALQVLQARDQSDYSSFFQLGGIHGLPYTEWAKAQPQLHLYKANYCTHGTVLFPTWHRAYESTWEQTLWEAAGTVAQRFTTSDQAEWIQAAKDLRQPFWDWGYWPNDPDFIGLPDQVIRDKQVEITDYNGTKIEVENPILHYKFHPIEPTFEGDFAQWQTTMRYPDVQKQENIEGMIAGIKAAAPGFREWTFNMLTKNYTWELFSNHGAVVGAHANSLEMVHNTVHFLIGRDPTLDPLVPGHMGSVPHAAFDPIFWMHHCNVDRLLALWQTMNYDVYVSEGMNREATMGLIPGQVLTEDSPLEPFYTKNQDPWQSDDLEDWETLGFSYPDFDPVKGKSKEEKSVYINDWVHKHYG
T1 sequence (G1K3P4 entry or part of it, further chain): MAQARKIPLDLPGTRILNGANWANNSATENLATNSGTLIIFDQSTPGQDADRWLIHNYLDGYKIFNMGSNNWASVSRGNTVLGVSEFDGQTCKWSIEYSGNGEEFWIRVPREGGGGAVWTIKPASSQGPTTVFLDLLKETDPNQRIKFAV

With `Nc1ccc2cc3ccccc3cc2c1` [Compound 2-AA, 2-aminoanthracene, reference compound] the “Increase in the number of yellow wells compared to the reference level, TA98” value [1] was 24.00 and 15.03 and the “Increase in the number of yellow wells compared to the reference level, TA100” value [2] was 4.00.
In the case of `Nc1c2ccccc2nc2ccccc12` [Compound 9-AA, reference compound], the “Increase in the number of yellow wells compared to the reference level, TA1535” value [3] is reported as 10.25 and 15.41.
In the case of `CCC(CO)NC(=O)/C=C/c1ccc(Cl)cc1` (centres unmarked) [Compound A-01, (2E)-3-(4-chlorophenyl)-N-(1-hydroxybutan-2-yl)prop-2-enamide], the “Cytotoxicity study in B16F10 cells, % viability” value (from here on “Cytotoxicity study … % viability”) ([4]; 150 μM) is reported as 73.6%, the “Cytotoxicity study … % viability” value ([4]; 200 μM) is reported as 93.2% and the “Cytotoxicity study … % viability” value ([4]; 250 μM) is reported as 85.4%. The inhibition at 500 µM [5] was 44 ± 2.6%, the RM0 [6] was 2.43 and the inhibition at 500 µM [7] was 61.8 ± 0.4%.
With `O=C(/C=C/c1ccccc1)NCCCCO` [Compound A-43, (2E)-N-(4-hydroxybutyl)-3-phenylprop-2-enamide] the “Cytotoxicity study … % viability” value ([4]; 150 μM) was 108.9%, the “Cytotoxicity study … % viability” value ([4]; 200 μM) was 105.7% and the “Cytotoxicity study … % viability” value ([4]; 250 μM) was 103.2%. It also gave an inhibition at 500 µM [5] of 34.5 ± 4.18%, an RM0 [6] of 1.60 and an inhibition at 500 µM [7] of 35.5 ± 1.37%.
With `CCC(O)CNC(=O)/C=C/c1ccc(C)cc1` (centres unmarked) [Compound A-63, (2E)-N-(2-hydroxybutyl)-3-(4-methylphenyl)prop-2-enamide] the “Cytotoxicity study … % viability” value ([4]; 150 μM) was 90.2%, the “Cytotoxicity study … % viability” value ([4]; 200 μM) was 87.3% and the “Cytotoxicity study … % viability” value ([4]; 250 μM) was 87.4%. For the same compound, the inhibition at 500 µM [5] was 21.2 ± 1.26%, the RM0 [6] was 2.39 and the inhibition at 500 µM [7] was 30.2 ± 10.2%.
In the case of `Cc1ccc(/C=C/C(=O)NC(C)CO)cc1` (centres unmarked) [Compound A-69, (2E)-N-(1-hydroxypropan-2-yl)-3-(4-methylphenyl)prop-2-enamide], the “Cytotoxicity study … % viability” value ([4]; 150 μM) is reported as 96.6%, the “Cytotoxicity study … % viability” value ([4]; 200 μM) is reported as 101.3% and the “Cytotoxicity study … % viability” value ([4]; 250 μM) is reported as 97.5%. The inhibition at 500 µM [5] was 23 ± 6.64%, the RM0 [6] was 2.17 and the inhibition at 500 µM [7] was 4.4 ± 7.15%.
For `O=C(/C=C/c1ccc(Cl)cc1)N1CCC(O)CC1` [Compound A-99, (2E)-3-(4-chlorophenyl)-1-(4-hydroxypiperidin-1-yl)prop-2-en-1-one], the “Cytotoxicity study … % viability” value ([4]; 150 μM) was 109.8%, the “Cytotoxicity study … % viability” value ([4]; 200 μM) was 102.6% and the “Cytotoxicity study … % viability” value ([4]; 250 μM) was 96.6%. It also gave an RM0 [6] of 2.27 and an inhibition at 500 µM [7] of 75.1 ± 1.6%.
For `CC(C)C(CO)NC(=O)/C=C/c1ccc(Cl)cc1` (centres unmarked) [Compound A-106, (2E)-3-(4-chlorophenyl)-N-(1-hydroxy-3-methylbutan-2-yl)prop-2-enamide], the “Cytotoxicity study … % viability” value ([4]; 150 μM) was 85.9%, the “Cytotoxicity study … % viability” value ([4]; 200 μM) was 88.1% and the “Cytotoxicity study … % viability” value ([4]; 250 μM) was 72.6%. For the same compound, the inhibition at 500 µM [5] was 41.2 ± 0.81%, the RM0 [6] was 2.76 and the inhibition at 500 µM [7] was 57.6 ± 2.11%.
For `CCC(CO)NC(=O)/C=C/c1ccc(Cl)cc1Cl` (centres unmarked) [H-285/20, (2E)-3-(2,4-dichlorophenyl)-N-(1-hydroxybutan-2-yl)prop-2-enamide], the “Cytotoxicity study … % viability” value ([4]; 150 μM) was 84.2%, the “Cytotoxicity study … % viability” value ([4]; 200 μM) was 74.8% and the “Cytotoxicity study … % viability” value ([4]; 250 μM) was 24.6%. It also gave an inhibition at 500 µM [5] of 0.21 ± 5.64%, an RM0 [6] of 3.08 and an inhibition at 500 µM [7] of 14.6 ± 1.63%.
In the case of `O=C(/C=C/c1ccc(Cl)cc1Cl)NCCCO` [H-296/20, (2E)-3-(2,4-dichlorophenyl)-N-(3-hydroxypropyl)prop-2-enamide], the “Cytotoxicity study … % viability” value ([4]; 150 μM) is reported as 67.0%, the “Cytotoxicity study … % viability” value ([4]; 200 μM) is reported as 57.0% and the “Cytotoxicity study … % viability” value ([4]; 250 μM) is reported as 38.3%. It also gave an inhibition at 500 µM [5] of 18.6 ± 1.67%, an RM0 [6] of 2.11 and an inhibition at 500 µM [7] of 17.9 ± 7.36%.
With `O=C(/C=C/c1ccc(Cl)cc1Cl)NCCCCCO` [H-297/20, (2E)-3-(2,4-dichlorophenyl)-N-(5-hydroxypentyl)prop-2-enamide] the “Cytotoxicity study … % viability” value ([4]; 150 μM) was 102.3%, the “Cytotoxicity study … % viability” value ([4]; 200 μM) was 73.6% and the “Cytotoxicity study … % viability” value ([4]; 250 μM) was 88.5%. For the same compound, the inhibition at 500 µM [5] was 20.5 ± 2.84%, the RM0 [6] was 3.08 and the inhibition at 500 µM [7] was 19.1 ± 2.53%.
For `O=C(/C=C/c1ccc(Cl)cc1Cl)NCCCCO` [H-298/20, (2E)-3-(2,4-dichlorophenyl)-N-(4-hydroxybutyl)prop-2-enamide], the “Cytotoxicity study … % viability” value ([4]; 150 μM) was 46.5%, the “Cytotoxicity study … % viability” value ([4]; 200 μM) was 40.6% and the “Cytotoxicity study … % viability” value ([4]; 250 μM) was 37.4%. The inhibition at 500 µM [5] was 11.2 ± 2.78%, the RM0 [6] was 2.78 and the inhibition at 500 µM [7] was 20 ± 2.96%.
For `O=C(/C=C/c1ccc(Cl)cc1Cl)N1CCC(O)CC1` [H-310/20, (2E)-3-(2,4-dichlorophenyl)-1-(4-hydroxypiperidin-1-yl)prop-2-en-1-one], the “Cytotoxicity study … % viability” value ([4]; 150 μM) was 89.5%, the “Cytotoxicity study … % viability” value ([4]; 200 μM) was 100.4% and the “Cytotoxicity study … % viability” value ([4]; 250 μM) was 93.0%. It also gave an inhibition at 500 µM [5] of 7.23 ± 0.81%, an RM0 [6] of 2.80 and an inhibition at 500 µM [7] of 19.2 ± 3.44%.
In the case of `CCC(O)CNC(=O)/C=C/c1ccc(Cl)cc1Cl` (centres unmarked) [H-320/21, (2E)-3-(2,4-dichlorophenyl)-N-(2-hydroxybutyl)prop-2-enamide], the “Cytotoxicity study … % viability” value ([4]; 150 μM) is reported as 101.7%, the “Cytotoxicity study … % viability” value ([4]; 200 μM) is reported as 90.8% and the “Cytotoxicity study … % viability” value ([4]; 250 μM) is reported as 33.9%. For the same compound, the inhibition at 500 µM [5] was 5.8 ± 3.04%, the RM0 [6] was 3.08 and the inhibition at 500 µM [7] was 24.4 ± 8.05%.
